Source: the supplement of paper PMC11208160

Experiment: recombinant barcode read abundance after kanamycin selection (control-corrected) (log10(CPM+1)); higher = more efficient recombination; sequences stand for … in AGTGCAGAGAAAATCGGCCAGTTTTCTCTGCCTGCAGTCCGCATGCCGT…AGATTTATGCAGCGGACTGCCTTTCTCCCAAAGTGATAAACCGGACAGTATCATGGACCGGTTTTCCCGGTAATCCGTATTTGCAAGGTTGGTTTCACT; site = the 11-nt target
Method: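 Pooled E. coli target-specificity screen for the IS621 bridge recombinase. Each library plasmid pairs an 11-nt target (CT core) with a bridge RNA whose target-binding loop (9-nt LTG + 4-nt RTG) is reprogrammed; the rest of the 177-nt WT IS621 bridge RNA scaffold is fixed. The plasmid is co-electroporated with a WT donor plasmid; recombinase is induced with 0.1 mM IPTG and recombinants are selected on kanamycin. Recombinant barcodes are sequenced, converted to CPM, averaged over two biological replicates and corrected by the unselected control CPM. Molecule = full bridge RNA written as DNA: LTG = specificity nt 1-9, RTG = reverse complement of specificity nt 8-11, in the WT scaffold.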
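Note: IS621 recombinase and bridge RNA in Escherichia coli cells.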

Sequence	recombinant barcode read abundance (log10)
AATGATTCTTGGGTTCTAACCTGTTGCGT (site AATGATTCTAC)	2.27
AATGATTCTTGGGTTCTAACCTGTTGCGT (site GGGCCGGCTCG)	0.433
AATGCATCTTGGGTTCTAACCTGTTGCCT (site AATGAATCTAG)	0.0891
AATGCATCTTGGGTTCTAACCTGTTGCCT (site AATGCATCTAG)	0.285
AATGCATCTTGGGTTCTAACCTGTTGCCT (site AATGGATCTAG)	0.054
AATGCATCTTGGGTTCTAACCTGTTGCCT (site AATGTATCTAG)	0.0299
AATGCTACTTGGGTTCTAACCTGTTGCCA (site AAAACTACTTG)	0.127
AATGCTACTTGGGTTCTAACCTGTTGCCA (site AATGCTACTTG)	0.266
AATGGATCTTGGGTTCTAACCTGTTGCCT (site AATGAATCTAG)	0.0825
AATGGATCTTGGGTTCTAACCTGTTGCCT (site AATGCATCTAG)	0.0416
AATGGATCTTGGGTTCTAACCTGTTGCCT (site AATGGATCTAG)	1.01
AATGGATCTTGGGTTCTAACCTGTTGCCT (site AATGTATCTAG)	0.0683
AATGGGTCTTGGGTTCTAACCTGTTGCCT (site AATGGGACTAG)	0.0612
AATGGGTCTTGGGTTCTAACCTGTTGCCT (site AATGGGCCTAG)	0.132
AATGGGTCTTGGGTTCTAACCTGTTGCCT (site AATGGGGCTAG)	0.04
AATGGGTCTTGGGTTCTAACCTGTTGCCT (site AATGGGTCTAG)	1.3
AATTAAGCTTGGGTTCTAACCTGTTGCCT (site AATTAAGCTAG)	1.28
AATTAAGCTTGGGTTCTAACCTGTTGCCT (site AATTCAGCTAG)	0.159
AATTAAGCTTGGGTTCTAACCTGTTGCCT (site AATTGAGCTAG)	0.088
AATTAAGCTTGGGTTCTAACCTGTTGCCT (site AATTTAGCTAG)	0.223
AATTCACCTTGGGTTCTAACCTGTTGCCT (site AATTCACCTAG)	0.454

Sequence	recombinant barcode read abundance (log10)
AATTCACCTTGGGTTCTAACCTGTTGCCT (site CATTCACCTAG)	0.0863
AATTCACCTTGGGTTCTAACCTGTTGCCT (site GATTCACCTAG)	0.0262
AATTCACCTTGGGTTCTAACCTGTTGCCT (site TATTCACCTAG)	0.129
AATTCAGCTTGGGTTCTAACCTGTTGCCT (site AATTAAGCTAG)	0.0713
AATTCAGCTTGGGTTCTAACCTGTTGCCT (site AATTCAGCTAG)	0.26
AATTCAGCTTGGGTTCTAACCTGTTGCCT (site AATTGAGCTAG)	0.164
AATTCAGCTTGGGTTCTAACCTGTTGCCT (site AATTTAGCTAG)	0.0408
AATTCGGCTTGGGTTCTAACCTGTTGCCT (site AATTCGGCTAG)	0.305
AATTCGGCTTGGGTTCTAACCTGTTGCCT (site ACTGCGGCTAG)	0.407
AATTGTCCTTGGGTTCTAACCTGTTGCAT (site AATTGTCCTAA)	0.296
AATTGTCCTTGGGTTCTAACCTGTTGCAT (site AATTGTCCTAC)	0.102
AATTGTCCTTGGGTTCTAACCTGTTGCAT (site AATTGTCCTAG)	0.0432
AATTGTCCTTGGGTTCTAACCTGTTGCAT (site AATTGTCCTAT)	0.249
AATTGTCCTTGGGTTCTAACCTGTTGCCT (site AATTGTCCTAA)	0.411
AATTGTCCTTGGGTTCTAACCTGTTGCCT (site AATTGTCCTAC)	0.0374
AATTGTCCTTGGGTTCTAACCTGTTGCCT (site AATTGTCCTAG)	0.407
AATTGTCCTTGGGTTCTAACCTGTTGCCT (site AATTGTCCTAT)	0.0177
AATTTGACTTGGGTTCTAACCTGTTGCCT (site AAATTGACTAG)	0.218
AATTTGACTTGGGTTCTAACCTGTTGCCT (site AACTTGACTAG)	0.0252
AATTTGACTTGGGTTCTAACCTGTTGCCT (site AAGTTGACTAG)	0.115
